The results in this text go back to the supplement of paper PMC8967900.
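Note: ALL cell lines in 384-well plates, five doses spanning 10,000-fold, each plate scaled between vehicle and 100 µmol/L benzalkonium chloride controls, sDSS an adapted area-under-curve metric.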

The subject of one test is DND-41. Nature of the test: selective drug sensitivity score (sDSS, relative to normal bone marrow) (sDSS (score)); higher = more potent and effective on the cell line relative to normal bone marrow cells. The conditions noted are these: 72 h.
Regarding `Cc1c(-c2ccc(N3CCc4cccc(C(=O)Nc5nc6ccccc6s5)c4C3)nc2C(=O)O)cnn1CC12CC3CC(CC(C3)C1)C2` (top concentration 1000 nM), the “selective drug sensitivity score” value amounted to 19.7.
Same read-out and setting: the result for `O=C(NOC[C@H](O)CO)c1ccc(F)c(F)c1Nc1ccc(I)cc1F` (top concentration 1000 nM) reads 8.64; that for `CO[C@@H](C)Cn1c(=O)n(C)c2cnc3ccc(-c4cncc(C(C)(C)O)c4)cc3c21` (top concentration 2500 nM), 3.18.
Regarding `Cc1cccc(CC(=O)N2CCc3c2ccc(-c2cn(C)c4ncnc(N)c24)c3F)n1` (top concentration 2500 nM), the “selective drug sensitivity score” value is -0.68.
Take `CNC(=O)c1ccccc1Nc1nc(Nc2ccc3c(c2OC)CCC[C@H](N2CCN(CCO)CC2)C3)ncc1Cl` (top concentration 5000 nM): the “selective drug sensitivity score” value worked out at 0.06.
The same measure, in the same setting: the result for `COc1cc2ncnc(Oc3cccc(NC(=O)Nc4cc(C(C)(C)C(F)(F)F)on4)c3)c2cc1OC` (top concentration 10000 nM) reads 0.
On the same count and under the same terms, for `C[C@@H](Oc1cc(-n2cnc3ccc(CN4CCN(C)CC4)cc32)sc1C(N)=O)c1ccccc1C(F)(F)F` (top concentration 10000 nM) the value was 13.2; for `Nc1nccc(-c2c(-c3ccc(F)cc3)ncn2C2CCCCC2)n1` (top concentration 10000 nM), 3.3; for `O=C(O)c1ccc(-c2c[nH]c3ncc(-c4ccccc4)cc23)cc1C1CCCC1` (top concentration 10000 nM), -1.24.
Same read-out and setting: the result for `C[C@@H]1CN(CC(=O)Nc2ccc3c(c2)Cc2cccc(-c4cc(=O)cc(N5CCOCC5)o4)c2S3)C[C@H](C)O1` (top concentration 25000 nM) reads 4.02; that for `COc1ccc2[nH]cc(/C=C3\C(=O)Nc4ccc(NC(=O)CCN5CCCCC5)cc43)c2c1` (top concentration 50000 nM), 1.38; that for `Cc1nn(C)c(COc2ccc(N3CCN(S(=O)(=O)N(C)C)CC3)cc2)c1-c1cccc2c(CCCOc3cccc4ccccc34)c(C(=O)O)n(CCN3CCOCC3)c12` (top concentration 50000 nM), 4.56.
For `C[C@H](Nc1ncnc2[nH]cnc12)c1cc2ccc(F)cc2nc1-c1ccccn1` [AMG319] (top concentration 1000 nM), the “selective drug sensitivity score” value is -0.92.
On the same count and under the same terms, for `C=CCn1c(=O)c2cnc(Nc3ccc(N4CCN(C)CC4)cc3)nc2n1-c1cccc(C(C)(C)O)n1` [AZD1775] (top concentration 10000 nM) the value was 11.5.
On the same count and under the same terms, the result for `NC(=O)Nc1cc(-c2cccc(F)c2)sc1C(=O)N[C@H]1CCCNC1` [AZD7762] (top concentration 1000 nM) reads 2.3; that for `Cc1cc([C@@H](C)Nc2ccccc2C(=O)O)c2nc(N3CCOCC3)cc(=O)n2c1` [AZD-6482] (top concentration 2500 nM), 2.32.
On the same count and under the same terms, the result for `CN(C)Cc1c(C(=O)NCCOc2ccc(C(=O)NO)cc2)oc2ccccc12` [Abexinostat] (top concentration 10000 nM) reads 4.46.
Consider `S=C(NCc1ccc2c(c1)OCO2)N1CCN(c2ncnc3c2oc2ccccc23)CC1` [Amuvatinib] (top concentration 10000 nM), for which the “selective drug sensitivity score” value was 4.16.
Same read-out and setting: the result for `CC(=O)OC[C@H]1O[C@@H]([S-])[C@H](OC(C)=O)[C@@H](OC(C)=O)[C@@H]1OC(C)=O.CCP(CC)CC.[Au+]` [Auranofin] (top concentration 2500 nM) reads 1.94.

A further test has as its system HAL-01. The description is as above. The note with it: 72 h.
Take `Cc1c(-c2ccc(N3CCc4cccc(C(=O)Nc5nc6ccccc6s5)c4C3)nc2C(=O)O)cnn1CC12CC3CC(CC(C3)C1)C2` (top concentration 1000 nM): the “selective drug sensitivity score” value is -1.86.
The same measure, in the same setting: the result for `O=C(NOC[C@H](O)CO)c1ccc(F)c(F)c1Nc1ccc(I)cc1F` (top concentration 1000 nM) reads 6.34.
For `CO[C@@H](C)Cn1c(=O)n(C)c2cnc3ccc(-c4cncc(C(C)(C)O)c4)cc3c21` (top concentration 2500 nM), the “selective drug sensitivity score” value is 1.98.
For `Cc1cccc(CC(=O)N2CCc3c2ccc(-c2cn(C)c4ncnc(N)c24)c3F)n1` (top concentration 2500 nM), the “selective drug sensitivity score” value was found to be 2.92.
Still for that read-out and setting: the result for `CNC(=O)c1ccccc1Nc1nc(Nc2ccc3c(c2OC)CCC[C@H](N2CCN(CCO)CC2)C3)ncc1Cl` (top concentration 5000 nM) reads 0.46; that for `COc1cc2ncnc(Oc3cccc(NC(=O)Nc4cc(C(C)(C)C(F)(F)F)on4)c3)c2cc1OC` (top concentration 10000 nM), 3.4; that for `C[C@@H](Oc1cc(-n2cnc3ccc(CN4CCN(C)CC4)cc32)sc1C(N)=O)c1ccccc1C(F)(F)F` (top concentration 10000 nM), 16.6.
For `Nc1nccc(-c2c(-c3ccc(F)cc3)ncn2C2CCCCC2)n1` (top concentration 10000 nM), the “selective drug sensitivity score” value is 1.
The same measure, in the same setting: for `O=C(O)c1ccc(-c2c[nH]c3ncc(-c4ccccc4)cc23)cc1C1CCCC1` (top concentration 10000 nM) the value was 4.26; for `C[C@@H]1CN(CC(=O)Nc2ccc3c(c2)Cc2cccc(-c4cc(=O)cc(N5CCOCC5)o4)c2S3)C[C@H](C)O1` (top concentration 25000 nM), -0.18.
The same measure, in the same setting: for `COc1ccc2[nH]cc(/C=C3\C(=O)Nc4ccc(NC(=O)CCN5CCCCC5)cc43)c2c1` (top concentration 50000 nM) the value was -3.42; for `Cc1nn(C)c(COc2ccc(N3CCN(S(=O)(=O)N(C)C)CC3)cc2)c1-c1cccc2c(CCCOc3cccc4ccccc34)c(C(=O)O)n(CCN3CCOCC3)c12` (top concentration 50000 nM), 2.46.
On the same count and under the same terms, the result for `C[C@H](Nc1ncnc2[nH]cnc12)c1cc2ccc(F)cc2nc1-c1ccccn1` [AMG319] (top concentration 1000 nM) reads 10.4; that for `C=CCn1c(=O)c2cnc(Nc3ccc(N4CCN(C)CC4)cc3)nc2n1-c1cccc(C(C)(C)O)n1` [AZD1775] (top concentration 10000 nM), 8.34.
Regarding `NC(=O)Nc1cc(-c2cccc(F)c2)sc1C(=O)N[C@H]1CCCNC1` [AZD7762] (top concentration 1000 nM), the “selective drug sensitivity score” value was 3.5.
On to `Cc1cc([C@@H](C)Nc2ccccc2C(=O)O)c2nc(N3CCOCC3)cc(=O)n2c1` [AZD-6482] (top concentration 2500 nM), for which the “selective drug sensitivity score” value was 6.62.
Take `CN(C)Cc1c(C(=O)NCCOc2ccc(C(=O)NO)cc2)oc2ccccc12` [Abexinostat] (top concentration 10000 nM): the “selective drug sensitivity score” value is -0.44.
The same measure, in the same setting: for `S=C(NCc1ccc2c(c1)OCO2)N1CCN(c2ncnc3c2oc2ccccc23)CC1` [Amuvatinib] (top concentration 10000 nM) the value was 2.96; for `CC(=O)OC[C@H]1O[C@@H]([S-])[C@H](OC(C)=O)[C@@H](OC(C)=O)[C@@H]1OC(C)=O.CCP(CC)CC.[Au+]` [Auranofin] (top concentration 2500 nM), 6.44.

A further test deals with KASUMI-10. Described as above. The note with it: 72 h.
For the molecule `Cc1c(-c2ccc(N3CCc4cccc(C(=O)Nc5nc6ccccc6s5)c4C3)nc2C(=O)O)cnn1CC12CC3CC(CC(C3)C1)C2` (top concentration 1000 nM), the “selective drug sensitivity score” value was 3.04.
As to `O=C(NOC[C@H](O)CO)c1ccc(F)c(F)c1Nc1ccc(I)cc1F` (top concentration 1000 nM), the “selective drug sensitivity score” value was -2.86.
Still for that read-out and setting: the result for `CO[C@@H](C)Cn1c(=O)n(C)c2cnc3ccc(-c4cncc(C(C)(C)O)c4)cc3c21` (top concentration 2500 nM) reads -1.02; that for `Cc1cccc(CC(=O)N2CCc3c2ccc(-c2cn(C)c4ncnc(N)c24)c3F)n1` (top concentration 2500 nM), -0.68; that for `CNC(=O)c1ccccc1Nc1nc(Nc2ccc3c(c2OC)CCC[C@H](N2CCN(CCO)CC2)C3)ncc1Cl` (top concentration 5000 nM), 5.66.
Same read-out and setting: for `COc1cc2ncnc(Oc3cccc(NC(=O)Nc4cc(C(C)(C)C(F)(F)F)on4)c3)c2cc1OC` (top concentration 10000 nM) the value was 10.8.
Still for that read-out and setting: for `C[C@@H](Oc1cc(-n2cnc3ccc(CN4CCN(C)CC4)cc32)sc1C(N)=O)c1ccccc1C(F)(F)F` (top concentration 10000 nM) the value was 11; for `Nc1nccc(-c2c(-c3ccc(F)cc3)ncn2C2CCCCC2)n1` (top concentration 10000 nM), 2.5; for `O=C(O)c1ccc(-c2c[nH]c3ncc(-c4ccccc4)cc23)cc1C1CCCC1` (top concentration 10000 nM), 5.46.
